Literature values as cited in patent US6602892B1, “Methods for nicotine replacement dosage determination” (priority 1993, dated 2003).

Conditions: in vivo

SMILES: CN1CCCC1c1cccnc1 (centres unmarked) [nicotine]
- half life: two

SMILES: CN1C(=O)CC[C@H]1c1cccnc1 [cotinine]
- half life: about 20 hours
